Data reported in US10752900B2, “Oligonucleotides for modulating gene expression and uses thereof” (BIOGENERA S.P.A., priority 2012, dated 2020).

Assays:
[1] = tested on: RD; assay: Cellular proliferation, RD cells; type: cell-based; settings: Table 11, MYC-directed PNA, 2.5 μM
Experimental: (§1) For this purpose 5×10^3 cells per well were seeded into 96-well cell culture plates (experiments conducted in triplicate) with 100 μl of OPTI-MEM (GIBCO BRL) medium containing 4% FBS and 2 mM of L-glutammine.
(§2) Cell viability was assessed by means of an ATP-Lite assay (Luminescence ATP Detection Assay System, PerkinElmer) and is reported as the ratio between the average signal of the treated wells compared to the average value of the wells of untreated control cells. The cells were processed following the instructions provided with the kit.
(§3) The oligonucleotides were tested in vitro (at a concentration of 2.5 μM) to determine their ability to inhibit the transcription of the gene they are directed against by measuring the levels of the gene messenger in cellular models in which the gene of interest is overexpressed. The methods used are the ones described in example 1.
(§4) In particular, SEQ ID NO: 66-69 (directed against MYCN) were tested in vitro in the Kelly and H69 cell lines; SEQ ID NO: 70-74 (directed against MYC) were tested in vitro in the H82 and RD cell lines, SEQ ID NO: 75, 76 (directed against BIRC5) were tested in vitro in the Kelly cell line, SEQ ID NO: 77-79 (directed against ALK) were tested in vitro in the Kelly cell line, SEQ ID NO: 80-82 (directed against BCL2) were tested in vitro in the Kelly cell line and SEQ ID NO: 83, 84 (directed against PLK4) were tested in vitro in the Kelly cell line.
(§5) The ability of the tested oligonucleotides to inhibit the messenger of the gene of interest was measured and the proliferative capacity of the cells following administration of the oligonucleotides was also assessed.

[2] = tested on: MYC; assay: QT-PCR, MYC mRNA in H82 cells; type: cell-based; settings: Table 11, 2.5 μM
Experimental: (§6) For the purpose of assessing the ability of the oligonucleotides of the present invention to modulate the expression of the target genes, their ability to reduce the quantity of messenger RNA was analyzed using the Real-Time PCR technique.
(§7) The cells were treated with the oligonucleotides, adding FBS up to 4% 6 hours after administration of the same. After 24 hours the total RNA was extracted from each well and purified using the RNeasy Mini Kit (QIAGEN).
(§8) As a control, use was made of the same cell lines as listed above treated with sterile water instead of oligonucleotides. Each RNA sample was quantified (in duplicate) using a NanoDrop ND-1000 spectrophotometer (NanoDrop Technologies). The first strand of cDNA was produced using the cDNA Synthesis Kit for RT-PCR (Roche). For the cDNA synthesis reaction a total of 1 μg of RNA was used. For the real-time PCR, 10 ng of cDNA in a final volume of 20 μl was used with SYBR Green Master Mix 2× (Applied Biosystems) (3 identical experiments were conducted in triplicate). Two housekeeping genes were used as positive controls: GAPDH and beta-actin (ACTB).
(§9) The conditions of the QT-PCR reaction were: 10 min at 95° C., 20 sec at 95° C., and 30 sec at 60° C., for 50 cycles.
as §3, §4, §5

[3] = tested on: MYC; assay: QT-PCR, MYC mRNA in RD cells; type: cell-based; settings: Table 11, 2.5 μM
Experimental: as §6, §7, §8, §9, §3, §4, §5

[4] = tested on: H82; assay: Cellular proliferation, H82 cells; type: cell-based; settings: Table 11, MYC-directed PNA, 2.5 μM
Experimental: as §1, §2, §3, §4, §5

[5] = tested on: Kelly cells; assay: Cellular proliferation assay (ATP-Lite), Kelly cells; type: cell-based, human; settings: 2.5 μM
Experimental: For the purpose of assessing the gene modulation ability of the oligonucleotides of the present invention, the effect of their administration on cell viability was determined.
as §1
The PNA oligonucleotides were administered at different concentrations (1 μM-2.5 μM-5 μM-10 μM) in order to observe a dose-effect relationship.
As regards all the other oligonucleotides, the concentrations at which they administered are listed in the paragraph:
The viability of the treated cells was determined at 48, 72, 96 and 168 hours after treatment.
as §2
The assays were performed on the same cell lines used to determine the levels of the MYCN gene messenger and listed in the paragraph: Treatments with Oligonucleotides—QT-PCR.
As far as the PNA oligonucleotides are concerned, the results regarding their ability to inhibit the transcription of the MYCN gene and proliferation of Kelly cells are shown in Table 1.
as §5

[6] = tested on: BCL2; assay: QT-PCR, BCL2 mRNA in Kelly cells; type: cell-based, human; settings: Table 11, 2.5 μM
Experimental: as §6, §7, §8, §9
as §3, with “1. […]” for “1.”
as §5

[7] = tested on: ALK; assay: QT-PCR, ALK mRNA in Kelly cells; type: cell-based, human; settings: Table 11, 2.5 μM
Experimental: as §6, §7, §8, §9
as §3, with “1. […]” for “1.”
as §5

[8] = tested on: PLK4; assay: QT-PCR, PLK4 mRNA in Kelly cells; type: cell-based, human; settings: Table 11; PLKA4, Kelly cells; 2.5 μM
Experimental: as §6, §7
as §8, with “(ACTB). […]” for “(ACTB).”
as §5

[9] = tested on: BIRC5; assay: QT-PCR, BIRC5 mRNA in Kelly cells; type: cell-based, human; settings: Table 11, 2.5 μM
Experimental: as §6, §7
as §8, with “(ACTB). […]” for “(ACTB).”
as §5

Substance	Cell Prolif. (%) [1]	mRNA inhibit. (%) [2]	mRNA inhibit. (%) [3]	Cell Prolif. (%) [4]	other results
SEQ ID NO: 71: PNA GCGGCCGGCTAGGGTG directed against MYC (all peptide nucleic acid (PNA); antigene PNA)	65%	46%	42%	75%	–
SEQ ID NO: 72: PNA CGGCCGGCTAGGGTGG directed against MYC (all peptide nucleic acid (PNA); antigene PNA)	53%	52%	58%	64%	–
SEQ ID NO: 73: PNA CGACGGCGGTGGCGGG directed against MYC (all peptide nucleic acid (PNA); antigene PNA)	51%	56%	59%	65%	–
SEQ ID NO: 80: PNA GGATGGCGCACGCTGG directed against BCL2 (all peptide nucleic acid (PNA); antigene PNA)	–	–	–	–	Cell Prolif. (%) ([5]; Table 11, BCL2-directed PNA): 62%; mRNA inhibit. (%) [6]: 59%
SEQ ID NO: 74: PNA GGACGGGGGCGGTGGA directed against MYC (all peptide nucleic acid (PNA); antigene PNA)	47%	61%	64%	61%	–
SEQ ID NO: 78: PNA CAGGAGAGGACGGTAC directed against ALK (all peptide nucleic acid (PNA); antigene PNA)	–	–	–	–	Cell Prolif. (%) ([5]; Table 11, ALK-directed PNA): 46%; mRNA inhibit. (%) [7]: 68%
SEQ ID NO: 83: PNA ACGGCAAGCGGCGGGA directed against PLK4 (all peptide nucleic acid (PNA); antigene PNA)	–	–	–	–	Cell Prolif. (%) ([5]; Table 11, PLK4-directed PNA): 59%; mRNA inhibit. (%) [8]: 62%
SEQ ID NO: 82: PNA CCACGGTGGTGGAGGA directed against BCL2 (all peptide nucleic acid (PNA); antigene PNA)	–	–	–	–	Cell Prolif. (%) ([5]; Table 11, BCL2-directed PNA): 55%; mRNA inhibit. (%) [6]: 68%
SEQ ID NO: 75: PNA GCGGCGGCATGGGTGC directed against BIRC5 (all peptide nucleic acid (PNA); antigene PNA)	–	–	–	–	Cell Prolif. (%) ([5]; Table 11, BIRC5-directed PNA): 43%; mRNA inhibit. (%) [9]: 69%
SEQ ID NO: 77: PNA GCAGGAGAGGACGGTA directed against ALK (all peptide nucleic acid (PNA); antigene PNA)	–	–	–	–	Cell Prolif. (%) ([5]; Table 11, ALK-directed PNA): 55%; mRNA inhibit. (%) [7]: 57%
SEQ ID NO: 76: PNA GGCGGCGGCATGGGTG directed against BIRC5 (all peptide nucleic acid (PNA); antigene PNA)	–	–	–	–	Cell Prolif. (%) ([5]; Table 11, BIRC5-directed PNA): 35%; mRNA inhibit. (%) [9]: 78%
SEQ ID NO: 79: PNA GGCAGGAGAGGACGGT directed against ALK (all peptide nucleic acid (PNA); antigene PNA)	–	–	–	–	Cell Prolif. (%) ([5]; Table 11, ALK-directed PNA): 39%; mRNA inhibit. (%) [7]: 79%
SEQ ID NO: 70: PNA CTCAGAGGCTTGGCGG directed against MYC (all peptide nucleic acid (PNA); antigene PNA)	73%	43%	34%	79%	–
SEQ ID NO: 84: PNA GGACGGCAAGCGGCGG directed against PLK4 (all peptide nucleic acid (PNA); antigene PNA)	–	–	–	–	Cell Prolif. (%) ([5]; Table 11, PLK4-directed PNA): 49%; mRNA inhibit. (%) [8]: 74%
SEQ ID NO: 81: PNA GGGAAGGATGGCGCAC directed against BCL2 (all peptide nucleic acid (PNA); antigene PNA)	–	–	–	–	Cell Prolif. (%) ([5]; Table 11, BCL2-directed PNA): 58%; mRNA inhibit. (%) [6]: 62%
